Converted amounts (≈) assume the structure as drawn.
What was measured:
[1] = system: VRE NCTC12201; assay: In vitro infectivity assay (MIC), broth dilution, Exp. Ex. 1-1; format: cell-based, enterococci; conditions: Enterococcus; VRE NCTC12201; Mueller-Hinton broth, 35° C., 24 hours; read-out: MIC VRE NCTC12201
Experimental: (§1) The antibacterial activities were measured based on broth dilution techniques of international standards (Clinical Laboratory Standards Institute: CLSI). The activities were shown by minimum inhibitory concentrations (MICs) determined by inoculating the above-mentioned strains at a concentration of about 10^5 […] into Mueller-Hinton broth (manufactured by Difco) containing 0.85% NaCl in 96-well microplates and incubating the plates at 35° C. for 24 hours. Measurement was carried out three times.
(§2) The antibacterial activities of the compounds of the present invention against various strains such as methicillin-resistant Staphylococcus aureus (MRSA), vancomycin intermediate-resistant Staphylococcus aureus (VISA), methicillin-sensitive Staphylococcus aureus (MSSA), and vancomycin-resistant enterococci (VRE) were examined. Of the bacteria used in MIC measurement in this test example, clinical bacteria of MRSA (OM481 strain and OM584 strain) were supplied from Okayama University Hospital (Japan). An MRSA strain N315, a vancomycin intermediate-resistant Staphylococcus aureus (VISA) strain Mu50, and a methicillin-sensitive Staphylococcus aureus (MSSA) strain FDA 209P were used as controls. Vancomycin-resistant enterococcus (VRE) strains NCTC 12201 and FN-1 were supplied from the National Institute of Infectious Disease (Japan).

[2] = system: VRE FN-1; assay: as above; format: cell-based, enterococci; conditions: Enterococcus; VRE FN-1; Mueller-Hinton broth, 35° C., 24 hours; read-out: MIC VRE FN-1
Experimental: as §1, §2

[3] = target: T1, DNA gyrase of Escherichia coli (Escherichia coli, UniProt P0AES4+P0AES6); assay: DNA gyrase inhibition (supercoiling assay kit), Exp. Ex. 1-2; format: biochemical; conditions: E. coli DNA gyrase supercoiling, relaxed pBR322, 37° C., 30 minutes; read-out: Gyrase inhibitory activity IC50 (converted)
T1 construct: purchased John Innes Enterprises #K0001
Experimental: As a kit for measurement of DNA gyrase of Escherichia coli, a product purchased from John Innes Enterprises (Gyrase Supercoiling assay kit #K0001) was used. Relaxed DNA was modified with gyrase into supercoiled DNA, and reaction products were separated by electrophoresis depending on the sizes of the molecular weights to examine anti-gyrase effects (IC50). One unit (1 U) of DNA gyrase and […] of relaxed pBR322 DNA were added to […] of the reaction solution, and the mixture was allowed to react at 37° C. for 30 minutes in the presence of 35 mM Tris-HCl (pH 7.5), 24 mM KCl, 4 mM MgCl2, 2 mM DTT, 1.8 mM spermidine, 1 mM ATP, 6.5% (w/v) glycerol, and 0.1 mg/ml BSA. The reactions were stopped using […] of a reaction stop solution (40% sucrose, 100 mM Tris-HCl (pH 7.5), 1 mM EDTA, 0.5 mg/ml bromophenol blue).

[4] = system: MRSA OM481; assay: In vitro infectivity assay (MIC), broth dilution, Exp. Ex. 1-1; format: cell-based, Staphylococcus aureus; conditions: Staphylococcus aureus; MRSA OM481; Mueller-Hinton broth, 35° C., 24 hours; read-out: MIC MRSA OM481
Experimental: as §1, §2

[5] = system: VISA Mu50; assay: as above; format: cell-based, Staphylococcus aureus; conditions: Staphylococcus aureus; VISA Mu50; Mueller-Hinton broth, 35° C., 24 hours; read-out: MIC VISA Mu50
Experimental: as §1, §2

[6] = system: MRSA OM58; assay: as above; format: cell-based, Staphylococcus aureus; conditions: Staphylococcus aureus; MRSA OM58; Mueller-Hinton broth, 35° C., 24 hours; read-out: MIC MRSA OM58
Experimental: as §1, §2

[7] = system: MSSA FDA 209P; assay: as above; format: cell-based, Staphylococcus aureus; conditions: Staphylococcus aureus; MSSA FDA 209P; Mueller-Hinton broth, 35° C., 24 hours; read-out: MIC MSS 209P
Experimental: as §1, §2

[8] = system: MRSA N315; assay: as above; format: cell-based, Staphylococcus aureus; conditions: Staphylococcus aureus; MRSA N315; Mueller-Hinton broth, 35° C., 24 hours; read-out: MIC MRSA N315
Experimental: as §1, §2

[9] = system: Escherichia coli K-12; assay: Antibacterial activity (MIC) against Gram-negative strains, microdilution; format: cell-based; conditions: K12, MIC after 24 h, read-out: MIC (Gram-nagative) K-12
Method in brief: (§3)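 CLSI broth microdilution in Mueller-Hinton broth with 0.85% NaCl, inoculum about 10^5 […]. Incubated 35° C for 24 hours; MIC taken as the minimum inhibitory concentration, measured three times.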

[10] = system: Pseodomonas aeruginosa PAOI; assay: as above; format: cell-based; conditions: MIC after 24 h, read-out: MIC (Gram-nagative) PAO1
Method in brief: as §3

[11] = system: Methicillin-resistant S. aureus OM481; assay: In vitro infectivity assay (MIC), Exp. Ex. 2-1; format: cell-based, Staphylococcus aureus; conditions: Staphylococcus aureus, MRSA; Gram-positive; microdilution, MIC after 24 h; read-out: MIC MRSA OM481
Method in brief: (§4)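 CLSI broth microdilution in Mueller-Hinton broth with 0.85% NaCl, inoculum about 10^5 CUF/[…]. MIC read after 24 h at 35° C; each determination run three times.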

[12] = system: Methicillin sensitive S. aureus 209P; assay: In vitro infectivity assay (MIC), Exp. Ex. 2-1; format: cell-based, Staphylococcus aureus; conditions: Staphylococcus aureus, 209P / MSSA; Gram-positive; microdilution, MIC after 24 h; read-out: MIC MSSA 209P
Method in brief: as §4

[13] = system: Methicillin-resistant S. aureus N315; assay: In vitro infectivity assay (MIC), Exp. Ex. 2-1; format: cell-based, Staphylococcus aureus; conditions: Staphylococcus aureus, MRSA; Gram-positive; microdilution, MIC after 24 h; read-out: MIC MRSA N315
Method in brief: as §4

[14] = system: Methicillin-resistant S. aureus OM584; assay: In vitro infectivity assay (MIC), Exp. Ex. 2-1; format: cell-based, Staphylococcus aureus; conditions: Staphylococcus aureus, MRSA; Gram-positive; microdilution, MIC after 24 h; read-out: MIC MRSA OM584
Method in brief: as §4

[15] = system: Methicillin-resistant S. aureus COL; assay: In vitro infectivity assay (MIC), Exp. Ex. 2-1; format: cell-based, Staphylococcus aureus; conditions: Staphylococcus aureus, MRSA; Gram-positive; microdilution, MIC after 24 h
[16] = system: Streptococcus pneumoniae R6; assay: In vitro infectivity assay (MIC), Exp. Ex. 2-1; format: cell-based; conditions: Streptococcus pneumoniae, R6; Gram-positive; microdilution, MIC after 24 h; read-out: MIC S. Pneumoniae R6
[17] = target: T2, Staphylococcus aureus Topoisomerase IV (Staphylococcus aureus, UniProt P0C1S7+P0C1U9); assay: Topoisomerase IV inhibition (decatenation kit), Exp. Ex. 2-3; format: biochemical
T2 construct: purchased John Innes Enterprises
Method in brief: (§5)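 Decatenation of 200 ng kinetoplast DNA by 1 unit enzyme, 30 min at 37 °C. S. aureus: 50 mM Tris-HCl pH 7.5, 350 mM potassium glutamate, 1.5 mM ATP; E. coli: 50 mM HEPES-KOH pH 7.6, 100 mM potassium glutamate, 1 mM ATP. Products resolved on 1.0% agarose in TAE.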

[18] = target: T3, Escherichia coli Topoisomerase IV (Escherichia coli, UniProt P0AFI2+P20083); assay: as above; format: biochemical; conditions: decatenation of kDNA, 37° C., 30 minutes; read-out: IC50 (E. coli topoisomerase IV inhibitions)
T3 construct: purchased John Innes Enterprises
Method in brief: as §5

[19] = target: T4, E. coli DNA gyrase (Escherichia coli, UniProt P0AES4+P0AES6); assay: DNA gyrase inhibition (supercoiling kit), Exp. Ex. 2-2; format: biochemical
T4 construct: purchased John Innes Enterprises #K0001
Method in brief: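 IC50 derived from gel electrophoresis separating supercoiled from relaxed DNA. Reactions ran 30 minutes at 37° C with 1 U gyrase, […] relaxed pBR322, 1 mM ATP and 4 mM MgCl2 in Tris-HCl buffer (pH 7.5), then stopped with EDTA-containing solution.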

[20] = system: Vancomycin intermediate-resistant Staphylococcus aureus Mu50; assay: In vitro infectivity assay (MIC), Exp. Ex. 2-1; format: cell-based; conditions: Staphylococcus aureus, VISA; Gram-positive; microdilution, MIC after 24 h; read-out: MIC VISA Mu50
Method in brief: as §4

[21] = system: Vancomycin-resistant enterococci NCTC 12201; assay: In vitro infectivity assay (MIC), Exp. Ex. 2-1; format: cell-based; conditions: Enterococcus, NCTC 12201 / VRE; Gram-positive; microdilution, MIC after 24 h; read-out: MIC VRE NCTC 12201
Method in brief: as §4

[22] = system: Vancomycin-resistant enterococci FN-1; assay: In vitro infectivity assay (MIC), Exp. Ex. 2-1; format: cell-based; conditions: Enterococcus, VRE; Gram-positive; microdilution, MIC after 24 h; read-out: MIC VRE FN-1
Method in brief: as §4

T4 sequence (P0AES4 whole entry, one chain of several): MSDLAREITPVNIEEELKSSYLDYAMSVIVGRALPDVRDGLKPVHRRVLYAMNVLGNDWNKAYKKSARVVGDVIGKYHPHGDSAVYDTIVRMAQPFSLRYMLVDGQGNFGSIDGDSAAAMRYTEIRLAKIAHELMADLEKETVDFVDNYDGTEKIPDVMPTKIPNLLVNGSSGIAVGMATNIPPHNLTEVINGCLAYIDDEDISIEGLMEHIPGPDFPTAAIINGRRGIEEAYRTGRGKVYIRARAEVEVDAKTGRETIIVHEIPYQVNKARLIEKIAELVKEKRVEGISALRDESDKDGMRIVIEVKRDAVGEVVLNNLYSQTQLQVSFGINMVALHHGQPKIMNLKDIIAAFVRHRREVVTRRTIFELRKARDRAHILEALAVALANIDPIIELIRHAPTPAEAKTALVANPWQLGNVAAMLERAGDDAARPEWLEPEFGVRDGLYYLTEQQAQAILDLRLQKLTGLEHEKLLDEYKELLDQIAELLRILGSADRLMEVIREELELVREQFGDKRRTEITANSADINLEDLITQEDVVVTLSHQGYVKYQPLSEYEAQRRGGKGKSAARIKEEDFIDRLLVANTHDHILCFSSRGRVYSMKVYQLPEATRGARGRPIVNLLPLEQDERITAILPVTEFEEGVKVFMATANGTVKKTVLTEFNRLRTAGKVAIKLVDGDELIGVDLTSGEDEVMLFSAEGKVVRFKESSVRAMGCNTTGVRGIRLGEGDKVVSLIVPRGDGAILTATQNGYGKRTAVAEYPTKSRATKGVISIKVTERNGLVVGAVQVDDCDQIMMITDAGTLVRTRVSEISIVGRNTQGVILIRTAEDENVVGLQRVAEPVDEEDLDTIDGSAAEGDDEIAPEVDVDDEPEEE
T3 sequence (P20083 whole entry): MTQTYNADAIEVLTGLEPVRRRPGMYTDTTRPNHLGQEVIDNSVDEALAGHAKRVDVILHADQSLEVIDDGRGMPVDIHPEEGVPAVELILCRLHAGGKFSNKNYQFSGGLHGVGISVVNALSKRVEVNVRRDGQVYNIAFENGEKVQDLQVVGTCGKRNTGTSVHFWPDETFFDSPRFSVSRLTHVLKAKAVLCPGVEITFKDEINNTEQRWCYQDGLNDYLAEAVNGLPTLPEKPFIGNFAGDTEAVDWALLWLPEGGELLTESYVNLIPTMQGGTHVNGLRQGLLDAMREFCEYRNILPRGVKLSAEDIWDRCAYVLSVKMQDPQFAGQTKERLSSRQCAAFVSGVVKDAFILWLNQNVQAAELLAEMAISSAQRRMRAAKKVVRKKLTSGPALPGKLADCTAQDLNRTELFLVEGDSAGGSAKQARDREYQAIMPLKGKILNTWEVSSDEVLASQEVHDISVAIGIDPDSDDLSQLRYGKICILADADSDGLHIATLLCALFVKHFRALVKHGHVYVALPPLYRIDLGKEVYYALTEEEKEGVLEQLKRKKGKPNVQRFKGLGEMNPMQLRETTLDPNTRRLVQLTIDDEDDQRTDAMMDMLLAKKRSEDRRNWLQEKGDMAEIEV
T3 sequence (P0AFI2 whole entry): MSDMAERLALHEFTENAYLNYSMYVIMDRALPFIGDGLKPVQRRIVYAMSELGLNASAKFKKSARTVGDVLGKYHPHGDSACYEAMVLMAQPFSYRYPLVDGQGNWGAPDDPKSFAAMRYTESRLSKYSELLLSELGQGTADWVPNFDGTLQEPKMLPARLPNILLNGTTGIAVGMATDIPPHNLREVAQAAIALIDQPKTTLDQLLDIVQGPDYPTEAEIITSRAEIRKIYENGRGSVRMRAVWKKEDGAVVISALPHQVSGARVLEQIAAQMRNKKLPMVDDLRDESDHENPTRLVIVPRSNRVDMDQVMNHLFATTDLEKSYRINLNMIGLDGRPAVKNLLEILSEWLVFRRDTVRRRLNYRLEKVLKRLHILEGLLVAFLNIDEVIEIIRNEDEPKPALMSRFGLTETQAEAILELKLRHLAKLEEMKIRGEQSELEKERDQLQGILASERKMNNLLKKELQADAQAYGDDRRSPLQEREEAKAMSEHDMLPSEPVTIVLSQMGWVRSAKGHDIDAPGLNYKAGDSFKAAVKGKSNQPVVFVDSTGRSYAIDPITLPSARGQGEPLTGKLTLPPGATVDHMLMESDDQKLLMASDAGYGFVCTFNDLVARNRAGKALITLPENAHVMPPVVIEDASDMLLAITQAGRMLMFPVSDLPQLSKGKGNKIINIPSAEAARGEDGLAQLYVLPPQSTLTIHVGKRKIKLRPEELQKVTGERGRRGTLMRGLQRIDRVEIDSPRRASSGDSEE
T2 sequence (P0C1U9 whole entry): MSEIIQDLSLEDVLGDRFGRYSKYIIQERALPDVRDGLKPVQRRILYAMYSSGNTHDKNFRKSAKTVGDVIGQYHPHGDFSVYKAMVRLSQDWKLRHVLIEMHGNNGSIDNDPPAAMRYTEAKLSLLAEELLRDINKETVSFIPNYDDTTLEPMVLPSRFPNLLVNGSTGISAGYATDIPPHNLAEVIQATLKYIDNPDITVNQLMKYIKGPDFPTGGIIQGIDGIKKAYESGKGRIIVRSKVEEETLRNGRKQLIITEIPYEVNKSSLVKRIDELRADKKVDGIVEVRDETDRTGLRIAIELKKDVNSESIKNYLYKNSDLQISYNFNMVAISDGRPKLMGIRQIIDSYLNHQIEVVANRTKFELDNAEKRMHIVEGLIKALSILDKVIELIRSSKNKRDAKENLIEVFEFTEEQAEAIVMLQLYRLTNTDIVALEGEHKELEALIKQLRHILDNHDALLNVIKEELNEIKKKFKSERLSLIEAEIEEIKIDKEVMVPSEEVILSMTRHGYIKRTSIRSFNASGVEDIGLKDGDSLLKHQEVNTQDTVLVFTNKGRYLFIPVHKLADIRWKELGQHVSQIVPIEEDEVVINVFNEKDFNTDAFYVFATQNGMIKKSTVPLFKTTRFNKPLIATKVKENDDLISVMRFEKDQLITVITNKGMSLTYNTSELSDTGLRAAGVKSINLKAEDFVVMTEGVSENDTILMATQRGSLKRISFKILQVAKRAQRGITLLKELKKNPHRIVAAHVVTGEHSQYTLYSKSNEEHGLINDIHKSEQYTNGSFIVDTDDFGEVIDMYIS
T2 sequence (P0C1S7 whole entry): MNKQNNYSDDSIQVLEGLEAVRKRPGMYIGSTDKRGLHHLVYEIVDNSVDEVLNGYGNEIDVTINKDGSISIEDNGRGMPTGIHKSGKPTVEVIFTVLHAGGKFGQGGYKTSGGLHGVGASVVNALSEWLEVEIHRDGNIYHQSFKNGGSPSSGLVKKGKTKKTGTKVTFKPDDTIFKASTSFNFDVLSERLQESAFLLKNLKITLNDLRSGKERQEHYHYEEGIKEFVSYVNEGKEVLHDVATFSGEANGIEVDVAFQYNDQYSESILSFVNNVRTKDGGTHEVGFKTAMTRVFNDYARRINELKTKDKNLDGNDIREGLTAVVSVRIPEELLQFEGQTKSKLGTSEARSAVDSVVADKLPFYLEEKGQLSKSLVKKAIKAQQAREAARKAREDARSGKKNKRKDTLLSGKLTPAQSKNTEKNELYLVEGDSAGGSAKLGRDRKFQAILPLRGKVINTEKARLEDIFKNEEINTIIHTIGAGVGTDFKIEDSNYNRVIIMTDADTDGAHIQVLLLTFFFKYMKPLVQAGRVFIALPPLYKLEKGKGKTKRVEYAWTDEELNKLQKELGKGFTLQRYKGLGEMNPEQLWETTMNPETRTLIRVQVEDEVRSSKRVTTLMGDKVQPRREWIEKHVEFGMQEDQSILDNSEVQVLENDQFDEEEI
T1 sequence (P0AES4 whole entry, one chain of several): as the sequence (P0AES4 whole entry, one chain of several) above

Q: For `CCOc1ccc(C(=O)O[C@H]2[C@H](Oc3c(-c4ccc(O)c(O)c4)oc4cc(O)cc(O)c4c3=O)O[C@H](CO)[C@@H](O)[C@@H]2OC(=O)c2ccc(OCC)cc2)cc1` [Compound 15e, 2-(3′,4′-Dihydroxy)-5,7-dihydroxy-3-β-D-(2″,3″-di-p-ethoxybenzoyloxy)glucosyl-4H-chromen-4-one], which MIC [1] is on record?
A: 16 µg/mL (≈ 21 µM)

Q: What about the MIC [2] of the same compound?
A: 16 µg/mL (≈ 21 µM)

Q: And the IC50 [3]?
A: 10800 nM

Q: What about the melting point of the same compound?
A: 122 to 123 °C

Q: What about the MIC [4] of the same compound?
A: 32 µg/mL (≈ 42.1 µM)

Q: And the MIC [5]?
A: 16 µg/mL (≈ 21 µM)

Q: What about the MIC [6] of the same compound?
A: 32 µg/mL (≈ 42.1 µM)

Q: What about the MIC [7] of the same compound?
A: 8 µg/mL (≈ 10.5 µM)

Q: And the MIC [8]?
A: 8 µg/mL (≈ 10.5 µM)

Q: What does the source list for `CCCc1ccc(C(=O)OC[C@H]2O[C@@H](Oc3c(-c4ccc(O)c(O)c4)oc4cc(O)cc(O)c4c3=O)[C@H](OC(=O)c3ccc(CCC)cc3)[C@@H](O)[C@H]2O)cc1` [Compound 14b]?
A: MIC [9]: > 128 µg/mL; MIC [10]: > 128 µg/mL; MIC [11]: 4 µg/mL (≈ 5.29 µM); MIC [12]: 2 µg/mL (≈ 2.64 µM); MIC [13]: 2 µg/mL (≈ 2.64 µM); MIC [14]: 4 µg/mL (≈ 5.29 µM); MIC [15]: 16 µg/mL (≈ 21.1 µM); melting point: 150 to 151 °C; MIC [16]: 2 µg/mL (≈ 2.64 µM); IC50 [17]: 1930 nM; IC50 [18]: 8890 nM; IC50 [19]: 770 nM; MIC [20]: 4 µg/mL (≈ 5.29 µM); MIC [21]: 4 µg/mL (≈ 5.29 µM); MIC [22]: 8 µg/mL (≈ 10.6 µM)

Q: Which MIC [9] does the source give for `Cc1ccc(CC(=O)OC[C@H]2O[C@@H](Oc3c(-c4ccc(O)c(O)c4)oc4cc(O)cc(O)c4c3=O)[C@H](OC(=O)Cc3ccc(C)cc3)[C@@H](O)[C@H]2O)cc1` [Compound 14d, 2-(3′,4′-Dihydroxyphenyl)-5,7-dihydroxy-3-β-D-[2″,6″-di-O-(4-methylphenylacetyl)]galactosyl-4H-chromen-4-one] here?
A: > 128 µg/mL

Q: And the MIC [10]?
A: > 128 µg/mL

Q: What about the MIC [11] of the same compound?
A: 2 µg/mL (≈ 2.74 µM)

Q: And the MIC [12]?
A: 4 µg/mL (≈ 5.49 µM)

Q: And the MIC [13]?
A: 8 µg/mL (≈ 11 µM)

Q: And the MIC [14]?
A: 2 µg/mL (≈ 2.74 µM)

Q: And the MIC [15]?
A: 16 µg/mL (≈ 22 µM)

Q: And the melting point?
A: 125 to 127 °C

Q: And the MIC [16]?
A: 2 µg/mL (≈ 2.74 µM)

Q: And the IC50 [17]?
A: 2690 nM

Q: What about the IC50 [18] of the same compound?
A: 8520 nM

Q: And the IC50 [19]?
A: 2210 nM

Q: What about the MIC [20] of the same compound?
A: 4 µg/mL (≈ 5.49 µM)

Q: What about the MIC [21] of the same compound?
A: 4 µg/mL (≈ 5.49 µM)

Q: And the MIC [22]?
A: 8 µg/mL (≈ 11 µM)
